Laboratory results taken from ChEMBL document CHEMBL3751690, “Oxidative burst inhibition, cytotoxicity and antibacterial acriquinoline alkaloids from Citrus reticulate (Blanco)” (Bioorg Med Chem Lett, 2016).
pIC50: −log10 of the molar value.

What was measured:
[1] = test system: Globisporangium ultimum; assay: Antimicrobial activity against Pythium ultimum after 48 hrs by paper disk diffusion assay; format: functional
[2] = test system: Aphanomyces cochlioides; assay: Antimicrobial activity against Aphanomyces cochlioides after 48 hrs by paper disk diffusion assay; format: functional
[3] = test system: Candida albicans; assay: Antimicrobial activity against Candida albicans after 48 hrs by paper disk diffusion assay; format: functional
[4] = test system: Rhizomucor miehei; assay: Antimicrobial activity against Mucor miehei after 48 hrs by paper disk diffusion assay; format: functional
[5] = Cytotoxicity against human PC3 cells after 3 days by MTT assay; format: functional, cell-based; conditions: PC-3, 72 h
[6] = test system: Escherichia coli; assay: Antimicrobial activity against Escherichia coli after 48 hrs by paper disk diffusion assay; format: functional
[7] = test system: Bacillus subtilis; assay: Antimicrobial activity against Bacillus subtilis after 48 hrs by paper disk diffusion assay; format: functional
[8] = test system: Staphylococcus aureus; assay: Antimicrobial activity against Staphylococcus aureus after 48 hrs by paper disk diffusion assay; format: functional
[9] = test system: Rhizoctonia solani; assay: Antimicrobial activity against Rhizoctonia solani after 48 hrs by paper disk diffusion assay; format: functional
[10] = Inhibition of serum-opsonized zymosan-induced oxidative burst in whole blood (unknown origin); format: functional, tissue-based

SMILES | MIC [1] | MIC [2] | MIC [3] | MIC [4] | MIC [6] | MIC [7] | MIC [8] | MIC [9] | pIC50 [10] | pIC50 [5]
Cc1cc2c3c(ccc(=O)n3C(O)(c3c(O)ccc4c(=O)c5c(O)cc6c(c5n(C)c34)C=CC(C)(C)O6)C2=O)c1 (configuration not stated) | > 1 µg/mL | > 1 µg/mL | > 1 µg/mL | > 1 µg/mL | > 1 µg/mL | > 1 µg/mL | > 1 µg/mL | > 1 µg/mL | 4.76 | 4.15
COc1cccc2c(=O)c3c(O)cc4c(c3n(C)c12)C=CC(C)(C)O4 | > 1 µg/mL | > 1 µg/mL | > 1 µg/mL | > 1 µg/mL | > 1 µg/mL | > 1 µg/mL | > 1 µg/mL | > 1 µg/mL | 5.35 | 4.15
CC1(C)C=Cc2c(cc(O)c3c(=O)cc(-c4ccc(O)cc4)oc23)O1 [ATALANTOFLAVONE] | > 1 µg/mL | > 1 µg/mL | > 1 µg/mL | > 1 µg/mL | > 1 µg/mL | > 1 µg/mL | > 1 µg/mL | > 1 µg/mL | 4.98 | 4.25
COc1cccc2c1C(=O)c1c(O)c3c(c(O)c1C2=O)C[C@@](O)(C(=O)CO)C[C@@H]3O[C@H]1C[C@H](N)[C@H](O)[C@H](C)O1 [DOXORUBICIN] | – | – | – | – | – | – | – | – | – | 6.05
COc1c2ccoc2c(OC)c2oc(=O)ccc12 [ISOPIMPINELLIN] | > 1 µg/mL | > 1 µg/mL | > 1 µg/mL | > 1 µg/mL | > 1 µg/mL | > 1 µg/mL | > 1 µg/mL | > 1 µg/mL | 5.03 | 4.00
COc1cc2ccc(=O)oc2cc1OC [SCOPARONE] | > 1 µg/mL | > 1 µg/mL | > 1 µg/mL | > 1 µg/mL | > 1 µg/mL | > 1 µg/mL | > 1 µg/mL | > 1 µg/mL | 4.94 | 4.26

Now from value to compound, other results behind:

MIC [1] | MIC [2] | MIC [3] | MIC [4] | MIC [6] | MIC [7] | MIC [8] | MIC [9] | pIC50 [10] | SMILES | pIC50 [5]
> 1 µg/mL | > 1 µg/mL | > 1 µg/mL | > 1 µg/mL | > 1 µg/mL | > 1 µg/mL | > 1 µg/mL | > 1 µg/mL | 4.70 | COc1ccc2c(=O)c3c(O)cc4c(c3n(C)c2c1C1(O)C(=O)c2cc(C)cc3ccc(=O)n1c23)C=CC(C)(C)O4 (configuration not stated) | 4.12
> 1 µg/mL | > 1 µg/mL | > 1 µg/mL | > 1 µg/mL | > 1 µg/mL | > 1 µg/mL | > 1 µg/mL | > 1 µg/mL | 4.79 | COc1cc(O)c(C=O)cc1OC | 4.22
– | – | – | – | – | – | – | – | 4.95 | CC(C)Cc1ccc(C(C)C(=O)O)cc1 (configuration not stated) [IBUPROFEN] | –
> 1 µg/mL | > 1 µg/mL | > 1 µg/mL | > 1 µg/mL | > 1 µg/mL | > 1 µg/mL | > 1 µg/mL | > 1 µg/mL | 4.74 | COc1cc2oc(=O)ccc2cc1CC=C(C)C [SUBEROSIN] | 4.29
